Reference: patent publication US20240343733A1, “COMPOUNDS FOR TARGETING DEGRADATION OF IRAK4 PROTEINS” (BIOGEN MA INC., priority 2021, published 2024)

target: T1, IRAK4 (Homo sapiens, UniProt Q9NWZ3); experiment: IRAK4 Degradation Assay, HiBiT Method; assay type: cell-based; conditions: 293T cells expressing HiBiT-tagged IRAK4, 6 hours
T1 construct: 293Tcells expressing HiBiT-tagged IRAK4 were then added into 384-well plates
T1 sequence (Q9NWZ3 1-460): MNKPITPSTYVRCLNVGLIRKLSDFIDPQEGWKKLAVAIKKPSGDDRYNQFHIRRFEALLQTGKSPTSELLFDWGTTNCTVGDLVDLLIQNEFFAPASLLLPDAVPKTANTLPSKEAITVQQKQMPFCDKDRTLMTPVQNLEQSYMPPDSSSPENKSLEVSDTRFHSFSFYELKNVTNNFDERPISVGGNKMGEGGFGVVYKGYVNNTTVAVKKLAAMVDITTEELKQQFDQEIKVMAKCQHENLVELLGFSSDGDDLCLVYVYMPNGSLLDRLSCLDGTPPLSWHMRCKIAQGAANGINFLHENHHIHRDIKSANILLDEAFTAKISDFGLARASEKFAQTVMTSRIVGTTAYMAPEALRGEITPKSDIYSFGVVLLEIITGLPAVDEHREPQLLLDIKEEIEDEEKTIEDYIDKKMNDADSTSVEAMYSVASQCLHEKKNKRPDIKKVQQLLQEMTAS
Outline: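 Luminescent read-out with Nano-Glo HiBiT lytic reagent after 6 h compound exposure at 37 °C. Cells were HiBiT-IRAK4 knock-in 293T (C-terminal tag), 10,000 per well. Compounds ran as 11-point half-log dilutions from […] highest dose, duplicate wells; DMSO served as negative control.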

SMILES | DC50 [nM]
CC(C)Oc1cc2nc(C3CCN(C(=O)CC4(O)CCN(c5ccc6c(C7CCC(=O)NC7=O)nn(C)c6c5)CC4)CC3)cn2cc1C(=O)Nc1cccc(C(F)F)n1 (centres unmarked) [Example 79, N-[6-(difluoromethyl)-2-pyridyl]-2-[1-[2-[1-[3-(2,6-dioxo-3-piperidyl)-1-methyl-indazol-6-yl]-4-hydroxy-4-piperidyl]acetyl]-4-piperidyl]-7-isopropoxy-imidazo[1,2-a]pyridine-6-carboxamide] | 10 to 100
CC(C)Oc1cc2nc([C@H]3CC[C@H](CN4CCC(c5ccc(C6CCC(=O)NC6=O)cc5F)CC4)CC3)cn2cc1C(=O)Nc1cccc(C(F)(F)F)n1 (some centres unmarked) [Example 6, 2-[4-[[4-[4-(2,6-dioxo-3-piperidyl)-2-fluoro-phenyl]-1-piperidyl]methyl]cyclohexyl]-7-isopropoxy-N-[6-(trifluoromethyl)-2-pyridyl]imidazo[1,2-a]pyridine-6-carboxamide] | 100 to 500
CC(C)Oc1cc2nc([C@H]3CC[C@H](CN4CCC(c5ccc(C6(C)CCC(=O)NC6=O)cc5)CC4)CC3)cn2cc1C(=O)Nc1cccc(C(F)F)n1 (some centres unmarked) [Example 40, N-[6-(difluoromethyl)-2-pyridyl]-7-isopropoxy-2-[4-[[4-[4-(3-methyl-2,6-dioxo-3-piperidyl)phenyl]-1-piperidyl]methyl]cyclohexyl]imidazo[1,2-a]pyridine-6-carboxamide] | 100 to 500
CC(C)Oc1cc2nn(C3CCN(C(=O)CC4CCN(c5ncc(C6CCC(=O)NC6=O)cc5F)CC4)CC3)cc2cc1C(=O)Nc1cccn([C@H]2C[C@H]2F)c1=O (stereo partly drawn) [Example 151, 2-(1-(2-(1-(5-(2,6-dioxopiperidin-3-yl)-3-fluoropyridin-2-yl)piperidin-4-yl)acetyl)piperidin-4-yl)-N-(1-((1S,2R)-2-fluorocyclopropyl)-2-oxo-1,2-dihydropyridin-3-yl)-6-isopropoxy-2H-indazole-5-carboxamide] | < 10
CC(C)Oc1cc2nc(C3CCN(C(=O)CC4CCN(c5ncc(C6CCC(=O)NC6=O)cc5F)CC4)CC3)cn2cc1C(=O)Nc1cccn([C@H]2C[C@H]2F)c1=O (stereo partly drawn) [Example 161, 2-(1-(2-(1-(5-(2,6-dioxopiperidin-3-yl)-3-fluoropyridin-2-yl)piperidin-4-yl)acetyl)piperidin-4-yl)-N-(1-((1S,2R)-2-fluorocyclopropyl)-2-oxo-1,2-dihydropyridin-3-yl)-7-isopropoxyimidazo[1,2-a]pyridine-6-carboxamide] | 10 to 100
CC(C)Oc1cc2nc(C3CCN(C(=O)CC4(O)CCN(c5cc(Cl)c(NC6CCC(=O)NC6=O)cc5Cl)CC4)CC3)cn2cc1C(=O)Nc1cccc(C(F)F)n1 (centres unmarked) [Example 75, 2-[1-[2-[1-[2,5-dichloro-4-[(2,6-dioxo-3-piperidyl)amino]phenyl]-4-hydroxy-4-piperidyl]acetyl]-4-piperidyl]-N-[6-(difluoromethyl)-2-pyridyl]-7-isopropoxy-imidazo[1,2-a]pyridine-6-carboxamide] | 10 to 100
CC(C)Oc1nc2nc(C3CCN(C(=O)CC4CC5(C4)CN(c4ccc(C6CCC(=O)NC6=O)cn4)C5)CC3)cn2cc1C(=O)Nc1cccn([C@H]2C[C@H]2F)c1=O (some centres unmarked) [Example 196] | < 10
CC(C)Oc1cc2nc(C3CCN(C(=O)CC4CCN(c5ccc(C6CCC(=O)NC6=O)cn5)CC4)CC3)cn2cc1C(=O)Nc1cccn([C@H]2C[C@H]2F)c1=O (stereo partly drawn) [Example 160, 2-(1-(2-(1-(5-(2,6-dioxopiperidin-3-yl)pyridin-2-yl)piperidin-4-yl)acetyl)piperidin-4-yl)-N-(1-((1S,2R)-2-fluorocyclopropyl)-2-oxo-1,2-dihydropyridin-3-yl)-7-isopropoxyimidazo[1,2-a]pyridine-6-carboxamide] | < 10
CO[C@H]1CN(C[C@H]2CC[C@H](c3cn4cc(C(=O)Nc5cccn([C@H]6C[C@H]6F)c5=O)c(OC(C)C)cc4n3)CC2)CC[C@H]1c1ccc2c(N3CCC(=O)NC3=O)nn(C)c2c1 [Example 191] | < 10
CC(C)Oc1cc2nc([C@H]3CC[C@H](CN4CCC(c5ccc(NC6CCC(=O)NC6=O)cn5)CC4)CC3)cn2cc1C(=O)Nc1cccc(C(F)F)n1 (some centres unmarked) [Example 35, N-[6-(difluoromethyl)-2-pyridyl]-2-[4-[[4-[5-[(2,6-dioxo-3-piperidyl)amino]-2-pyridyl]-1-piperidyl]methyl]cyclohexyl]-7-isopropoxy-imidazo[1,2-a]pyridine-6-carboxamide] | 10 to 100
CC(C)Oc1cc2nc([C@H]3CC[C@H](CN4CCC(c5ccc6c(c5)n(C)c(=O)n6C5CCC(=O)NC5=O)C(F)(F)C4)CC3)cn2cc1C(=O)Nc1cccc(C(F)F)n1 (some centres unmarked) [Example 29, N-[6-(difluoromethyl)-2-pyridyl]-2-[4-[[4-[1-(2,6-dioxo-3-piperidyl)-3-methyl-2-oxo-benzimidazol-5-yl]-3,3-difluoro-1-piperidyl]methyl]cyclohexyl]-7-isopropoxy-imidazo[1,2-a]pyridine-6-carboxamide] | 10 to 100
CC(C)Oc1cc2nn([C@H]3CC[C@H](CN4CCCCC4Cc4ccc(OC5CCC(=O)NC5=O)cc4)CC3)cc2cc1C(=O)Nc1cccn([C@H]2C[C@H]2F)c1=O (stereo partly drawn) [Example 139, 2-((1r,4S)-4-((2-(4-((2,6-dioxopiperidin-3-yl)oxy)benzyl)piperidin-1-yl)methyl)cyclohexyl)-N-(1-((1S,2R)-2-fluorocyclopropyl)-2-oxo-1,2-dihydropyridin-3-yl)-6-isopropoxy-2H-indazole-5-carboxamide] | < 10
CC(C)Oc1cc2nn(C3CCN(C(=O)CC4CCN(c5ncc6c(n5)n(C)c(=O)n6C5CCC(=O)NC5=O)CC4)CC3)cc2cc1C(=O)Nc1cccn([C@H]2C[C@H]2F)c1=O (stereo partly drawn) [Example 150, 2-(1-(2-(1-(7-(2,6-dioxopiperidin-3-yl)-9-methyl-8-oxo-8,9-dihydro-7H-purin-2-yl)piperidin-4-yl)acetyl)piperidin-4-yl)-N-(1-((1S,2R)-2-fluorocyclopropyl)-2-oxo-1,2-dihydropyridin-3-yl)-6-isopropoxy-2H-indazole-5-carboxamide] | < 10

More lines, now with the values ahead:

DC50 [nM] | SMILES
10 to 100 | CC(C)Oc1cc2nn(C3CCN(C(=O)CC4CCN(c5ncc(C6CCC(=O)NC6=O)cc5F)CC4)CC3)cc2cc1C(=O)Nc1cnn2cccnc12 (centres unmarked) [Example 148, 2-(1-(2-(1-(5-(2,6-dioxopiperidin-3-yl)-3-fluoropyridin-2-yl)piperidin-4-yl)acetyl)piperidin-4-yl)-6-isopropoxy-N-(pyrazolo[1,5-a]pyrimidin-3-yl)-2H-indazole-5-carboxamide]
< 10 | CC(C)Oc1cc2nn([C@H]3CC[C@H](CN4CC[C@@H](c5ccc6c(C7CCC(=O)NC7=O)nn(C)c6c5)[C@@H](O)C4)CC3)cc2cc1C(=O)Nc1cccn([C@H]2C[C@H]2F)c1=O (stereo partly drawn) [Example 133, 2-((1R,4S)-4-(((3R,4S)-4-(3-(2,6-dioxopiperidin-3-yl)-1-methyl-1H-indazol-6-yl)-3-hydroxypiperidin-1-yl)methyl)cyclohexyl)-N-(1-((1S,2R)-2-fluorocyclopropyl)-2-oxo-1,2-dihydropyridin-3-yl)-6-isopropoxy-2H-indazole-5-carboxamide]
10 to 100 | CC(C)Oc1nc2nc(C3CCN(C(=O)N(C)C4CCN(c5ncc(C6CCC(=O)NC6=O)cc5F)CC4)CC3)cn2cc1C(=O)Nc1cccn(C2CC2)c1=O (centres unmarked) [Example 195]
100 to 500 | CC(C)Oc1cc2nn(C3CCN(C(=O)CN4CCC(c5ccc(NC6CCC(=O)NC6=O)cc5F)CC4)CC3)cc2cc1C(=O)Nc1cccc(C(F)(F)F)n1 (centres unmarked) [Example 61, 2-[1-[2-[4-[4-[(2,6-dioxo-3-piperidyl)amino]-2-fluoro-phenyl]-1-piperidyl]acetyl]-4-piperidyl]-6-isopropoxy-N-[6-(trifluoromethyl)-2-pyridyl]indazole-5-carboxamide]
10 to 100 | CC(C)Oc1cc2nn(C3CCN(C(=O)CN4CCC(c5ccc(C6CCC(=O)NC6=O)cc5F)CC4)CC3)cc2cc1C(=O)Nc1cccc(C(F)F)n1 (centres unmarked) [Example 63, N-(6-(difluoromethyl)pyridin-2-yl)-2-(1-(2-(4-(4-(2,6-dioxopiperidin-3-yl)-2-fluorophenyl)piperidin-1-yl)acetyl)piperidin-4-yl)-6-isopropoxy-2H-indazole-5-carboxamide]
10 to 100 | CC(C)Oc1cc2nn(C3CCN(C(=O)CC4(O)CCN(c5cc(F)c(NC6CCC(=O)NC6=O)cc5F)CC4)CC3)cc2cc1C(=O)Nc1cccc(C(F)F)n1 (centres unmarked) [Example 66, N-(6-(difluoromethyl)pyridin-2-yl)-2-(1-(2-(1-(4-((2,6-dioxopiperidin-3-yl)amino)-2,5-difluorophenyl)-4-hydroxypiperidin-4-yl)acetyl)piperidin-4-yl)-6-isopropoxy-2H-indazole-5-carboxamide]
10 to 100 | CC(C)Oc1cc2nc(C3CCN(C(=O)CN4CCC(n5ccc(NC6CCC(=O)NC6=O)n5)CC4)CC3)cn2cc1C(=O)Nc1cccc(C(F)F)n1 (centres unmarked) [Example 83, N-[6-(difluoromethyl)-2-pyridyl]-2-[1-[2-[4-[3-[(2,6-dioxo-3-piperidyl)amino]pyrazol-1-yl]-1-piperidyl]acetyl]-4-piperidyl]-7-isopropoxy-imidazo[1,2-a]pyridine-6-carboxamide]
